Results as given in patent US20240410907A1, “FLUORESCENT ION INDICATORS AND THEIR APPLICATIONS” (AAT Bioquest, Inc., priority 2023, published 2024).

Assays:
[1] = Sodium ion response, fluorescence intensity with 60 mM NaCl (Fmax) or without NaCl (F0); settings: 2.5 μM, Tris-HCl buffer pH 7, 60 mM NaCl (Fmax) vs no NaCl (F0), FIG. 5
Experimental: FIG. 5. Comparisons of Compound 8 and SBFI to sodium ion responses. SBFI (2.5 μM) and Compound 8 (2.5 μM) are added in Tris-HCl buffer (pH-7) with 60 mM NaCl (Fmax) or without NaCl (F0) and their fluorescence intensities are recorded. […] SBFI=Black column; Compound 8=Grey column.

[2] = Excitation and fluorescence spectra in TRIS buffer (pH 7.0) in the presence of 100 mM NaCl; format: physicochemical; settings: 2.5 μM, TRIS buffer pH 7.0, 100 mM NaCl, FIG. 3
Experimental: (§1) FIG. 3. The spectral comparison of SBFI and Compound 8. SBFI (2.5 μM) and Compound 8 (2.5 μM) are dissolved in TRIS buffer (pH 7.0). The excitation and fluorescence spectra are recorded in the presence of 100 mM NaCl. […] The strong and sharp fluorescence emission peak is a critical characteristic required for multicolor analysis.

[3] = Absorption spectra in TRIS buffer (pH 7.0) in the presence of 100 mM NaCl; format: physicochemical; settings: 10 μM, TRIS buffer pH 7.0, 100 mM NaCl, FIG. 1
Experimental: (§2) FIG. 1. The absorption spectral comparison of SBFI and Compound 8. SBFI (10 μM) and Compound 8 (10 μM) are dissolved in TRIS buffer (pH 7.0). The absorption spectra are recorded in the presence of 100 mM NaCl. […] A longer absorption wavelength minimizes the background caused by naturally occurring biological substances.

[4] = Potassium ion response, fluorescence intensity with 60 mM KCl (Fmax) or without KCl (F0); settings: 2.5 μM, Tris-HCl buffer pH 7.0, 60 mM KCl (Fmax) vs no KCl (F0), FIG. 6
Experimental: FIG. 6. Comparisons of Compound 12 and PBFI to potassium ion responses. PBFI (2.5 μM) and Compound 12 (2.5 μM) are added in Tris-HCl buffer (pH 7.0) with 60 mM KCl (Fmax) or without KCl (F0) and their fluorescence intensities are recorded. […] PBFI=Black column; Compound 12=Grey column.

[5] = Excitation and fluorescence spectra in TRIS buffer (pH 7.0) in the presence of 100 mM KCl; format: physicochemical; settings: 2.5 μM, TRIS buffer pH 7.0, 100 mM KCl, FIG. 4
Experimental: as §1, with “4.” for “3.”, “PBFI” for “SBFI”, “12. PBFI” for “8. SBFI”, “12” for “8”, “KCl.” for “NaCl.”, “[…]” for “sharp fluorescence emission peak”

[6] = Absorption spectra in TRIS buffer (pH 7.0) in the presence of 100 mM KCl; format: physicochemical; settings: 10 μM, TRIS buffer pH 7.0, 100 mM KCl, FIG. 2
Experimental: as §2, with “2.” for “1.”, “PBFI” for “SBFI”, “12. PBFI” for “8. SBFI”, “12” for “8”, “KCl.” for “NaCl.”

fluorescence emission compared with PBFI [5] | SMILES | sodium ion response compared with SBFI [1] | fluorescence emission peak compared with SBFI [2] | absorption wavelength compared with SBFI [3] | potassium ion response compared with PBFI [4] | absorption wavelength compared with PBFI [6]
– | COc1ccccc1N1CCOCCOCCN(c2cc(C(=O)O)c(-c3c4cc(F)c(=O)cc-4oc4cc(O)c(F)cc34)cc2OC)CCOCC1 [Compound 8] | much stronger sodium ion response than SBFI | much stronger and sharper fluorescence emission peak | much longer absorption wavelength than SBFI | – | –
much stronger and sharper | COc1ccccc1N1CCOCCOCCN(c2cc(C(=O)O)c(-c3c4cc(F)c(=O)cc-4oc4cc(O)c(F)cc34)cc2OC)CCOCCOCC1 [Compound 12] | – | – | – | much stronger potassium ion response than PBFI | much longer absorption wavelength than PBFI
